According to patent publication US8575158B2, “1-phenyl-substituted heterocyclyl derivatives and their use as prostaglandin D2 receptor modulators” (Actelion Pharmaceuticals Ltd., priority 2010, dated 2013):
pIC50: −log10 of the molar value.

Molecular target: T1, hCRTH2 receptor (Homo sapiens, UniProt Q9Y5Y4)
T1 construct: expressed in transfected cells; host or cells: HEK293
T1 sequence (Q9Y5Y4 1-395): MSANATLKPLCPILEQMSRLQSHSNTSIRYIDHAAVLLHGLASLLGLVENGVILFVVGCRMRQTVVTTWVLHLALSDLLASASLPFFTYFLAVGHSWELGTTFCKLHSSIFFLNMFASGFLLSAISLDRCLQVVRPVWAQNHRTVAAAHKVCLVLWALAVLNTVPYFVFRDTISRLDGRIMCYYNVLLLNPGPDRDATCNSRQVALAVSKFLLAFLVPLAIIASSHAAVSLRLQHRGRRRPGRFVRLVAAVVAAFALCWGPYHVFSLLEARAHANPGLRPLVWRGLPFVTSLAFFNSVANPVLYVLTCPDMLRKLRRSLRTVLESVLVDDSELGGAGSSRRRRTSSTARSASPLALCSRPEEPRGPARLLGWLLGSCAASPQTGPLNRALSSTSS
Assay: Radioligand displacement assay (3H-PGD2) on hCRTH2 receptor membranes
Type: binding
Settings: antagonistic activity, 3H-PGD2 radioligand displacement, HEK293-hCRTH2 membranes
Protocol: First, recombinant HEK293-hCRTH2 cells were detached from culture plates into 5 ml buffer A/plate (Buffer A: 5 mM Tris, 1 mM MgCl2-6H2O pH=7.4) using a rubber policeman. Cells were then transferred into centrifugation tubes and centrifuged for 5 min at 400 g. The cell pellet was resuspended in the same buffer and tubes were frozen at −80° C. Cells were thawed and membrane fragments were generated by homogenization using a polytron homogenizer (30 seconds). The membrane fragments were then centrifuged at 3000 g for 20 minutes and resuspended in buffer C (Buffer C: 75 mM Tris, 25 mM MgCl2, 250 mM Saccharose pH 7.4). Aliquots of membrane fragments were stored at −20° C.
Binding assay was performed in a final assay volume of 250 μl. First, 25 μl of test compound, previously diluted in Binding-Buffer (Binding-Buffer: 50 mM Tris-Base, 100 mM NaCl, 1 mM EDTA, 0.1% BSA (protease free), 0.01% NaN3, 10 mM MnCl2, pH 7.0) was placed into each well. After addition of 75 μl Binding-Buffer, 50 μl of the radioligand ^3H-PGD2 (at 2.5 nM (220.000 dpm/well) from ANAWA ART0662) was added to each well. Binding assay was started by addition of 100 μl CRTH2 membrane fragments, reaching a final concentration of 20 μg/well. For non-specific binding, PGD2 was added to the reaction mixture to […] final concentration.
This assay mix was incubated for 90 minutes at room temperature and then filtered through a GF/C filter 96-well plate which was pre-soaked for 3 hours in 0.5% polyethyleneimine (PEI). The filter-wells were washed three times with ice cold Binding-Buffer. Then, 40 μl of Microscint-40 (Packard) was added to each well and the retained radioactivity quantified in a Topcount (Packard).

pIC50	Compound
8.03	O=C(O)COc1ccc(Cl)cc1C1c2ccc(F)cc2CCN1C(=O)C1CC1c1ccccc1Cl (mixture of isomers) [Example 430, (±)-(4-Chloro-2-{2-[2-(trans-2-chloro-phenyl)-cyclopropanecarbonyl]-6-fluoro-1,2,3,4-tetrahydro-isoquinolin-1-yl}-phenoxy)-acetic acid]

Same assay, conditions: antagonistic activity; 3H-PGD2 displacement on HEK293-hCRTH2 membrane fragments

Compound	pIC50
O=C(O)COc1ccc(F)cc1C1c2ccccc2CCN1C(=O)OCc1ccccc1 (racemic) [Example 1, (±)-1-(2-Carboxymethoxy-5-fluoro-phenyl)-3,4-dihydro-1H-isoquinoline-2-carboxylic acid benzyl ester]	8.12
Cc1ccc(OCC(=O)O)c(C2c3ccccc3CCN2C(=O)OCc2ccccc2)c1 (racemic) [Example 3, (±)-1-(2-Carboxymethoxy-5-methyl-phenyl)-3,4-dihydro-1H-isoquinoline-2-carboxylic acid benzyl ester]	7.20
O=C(O)COc1ccc(Br)cc1C1c2ccccc2CCN1C(=O)OCc1ccccc1 (racemic) [Example 4, (±)-1-(5-Bromo-2-carboxymethoxy-phenyl)-3,4-dihydro-1H-isoquinoline-2-carboxylic acid benzyl ester]	7.98
O=C(O)COc1ccc(F)cc1C1c2cc(Br)ccc2CCN1C(=O)OCc1ccccc1 (racemic) [Example 5, (±)-7-Bromo-1-(2-carboxymethoxy-5-fluoro-phenyl)-3,4-dihydro-1H-isoquinoline-2-carboxylic acid benzyl ester]	7.09
O=C(O)COc1cc(F)c(F)cc1C1c2ccccc2CCN1C(=O)OCc1ccccc1 (racemic) [Example 6, (±)-1-(2-Carboxymethoxy-4,5-difluoro-phenyl)-3,4-dihydro-1H-isoquinoline-2-carboxylic acid benzyl ester]	7.52
O=C(O)COc1ccc(F)cc1C1c2cccc(Br)c2CCN1C(=O)OCc1ccccc1 (racemic) [Example 7, (±)-5-Bromo-1-(2-carboxymethoxy-5-fluoro-phenyl)-3,4-dihydro-1H-isoquinoline-2-carboxylic acid benzyl ester]	8.10
O=C(O)COc1ccc(F)cc1C1c2cc(F)c(F)cc2CCN1C(=O)OCc1ccccc1 (racemic) [Example 9, (±)-1-(2-Carboxymethoxy-5-fluoro-phenyl)-6,7-difluoro-3,4-dihydro-1H-isoquinoline-2-carboxylic acid benzyl ester]	7.45
O=C(O)COc1ccc(Br)cc1C1c2cc(F)c(F)cc2CCN1C(=O)OCc1ccccc1 (racemic) [Example 10, (±)-1-(5-Bromo-2-carboxymethoxy-phenyl)-6,7-difluoro-3,4-dihydro-1H-isoquinoline-2-carboxylic acid benzyl ester]	7.13
N#Cc1ccc(OCC(=O)O)c(C2c3cc(F)c(F)cc3CCN2C(=O)OCc2ccccc2)c1 (racemic) [Example 11, (±)-1-(2-Carboxymethoxy-5-cyano-phenyl)-6,7-difluoro-3,4-dihydro-1H-isoquinoline-2-carboxylic acid benzyl ester]	7.88
O=C(O)COc1ccc(F)cc1C1c2cccc(C(F)(F)F)c2CCN1C(=O)OCc1ccccc1 (racemic) [Example 12, (±)-1-(2-Carboxymethoxy-5-fluoro-phenyl)-5-trifluoromethyl-3,4-dihydro-1H-isoquinoline-2-carboxylic acid benzyl ester]	8.34
O=C(O)COc1ccc(F)cc1C1c2ccc(F)c(F)c2CCN1C(=O)OCc1ccccc1 (racemic) [Example 14, (±)-1-(2-Carboxymethoxy-5-fluoro-phenyl)-5,6-difluoro-3,4-dihydro-1H-isoquinoline-2-carboxylic acid benzyl ester]	7.73
O=C(O)COc1ccc(Cl)cc1C1c2ccc(F)c(F)c2CCN1C(=O)OCc1ccccc1 (racemic) [Example 15, (±)-1-(2-Carboxymethoxy-5-chloro-phenyl)-5,6-difluoro-3,4-dihydro-1H-isoquinoline-2-carboxylic acid benzyl ester]	8.00
N#Cc1ccc(OCC(=O)O)c(C2c3ccc(F)c(F)c3CCN2C(=O)OCc2ccccc2)c1 (racemic) [Example 16, (±)-1-(2-Carboxymethoxy-5-cyano-phenyl)-5,6-difluoro-3,4-dihydro-1H-isoquinoline-2-carboxylic acid benzyl ester]	8.36
CN(C)S(=O)(=O)c1ccc(OCC(=O)O)c(C2c3ccccc3CCN2C(=O)OCc2ccccc2)c1 (racemic) [Example 17, (±)-1-(2-Carboxymethoxy-5-dimethylsulfamoyl-phenyl)-3,4-dihydro-1H-isoquinoline-2-carboxylic acid benzyl ester]	6.05
O=C(O)COc1ccc(Cl)cc1C1c2cccc(F)c2CCN1C(=O)OCc1ccccc1 (racemic) [Example 18, (±)-1-(2-Carboxymethoxy-5-chloro-phenyl)-5-fluoro-3,4-dihydro-1H-isoquinoline-2-carboxylic acid benzyl ester]	8.27

Continued, values first:

pIC50	Compound
8.03	N#Cc1ccc(OCC(=O)O)c(C2c3cccc(F)c3CCN2C(=O)OCc2ccccc2)c1 (racemic) [Example 19, (±)-1-(2-Carboxymethoxy-5-cyano-phenyl)-5-fluoro-3,4-dihydro-1H-isoquinoline-2-carboxylic acid benzyl ester]
7.29	O=C(O)COc1ccc(C(F)(F)F)cc1C1c2ccccc2CCN1C(=O)OCc1ccccc1 (racemic) [Example 20, (±)-1-(2-Carboxymethoxy-5-trifluoromethyl-phenyl)-3,4-dihydro-1H-isoquinoline-2-carboxylic acid benzyl ester]
8.16	O=C(O)COc1ccc(Cl)cc1C1c2ccccc2CCN1C(=O)OCc1ccccc1 (racemic) [Example 21, (±)-1-(2-Carboxymethoxy-5-chloro-phenyl)-3,4-dihydro-1H-isoquinoline-2-carboxylic acid benzyl ester]
6.32	CC(C)c1ccc(OCC(=O)O)c(C2c3ccccc3CCN2C(=O)OCc2ccccc2)c1 (racemic) [Example 22, (±)-1-(2-Carboxymethoxy-5-isopropyl-phenyl)-3,4-dihydro-1H-isoquinoline-2-carboxylic acid benzyl ester]
6.64	O=C(O)COc1cc2c(cc1C1c3ccccc3CCN1C(=O)OCc1ccccc1)OCO2 (racemic) [Example 23, (±)-1-(6-Carboxymethoxy-benzo[1,3]dioxol-5-yl)-3,4-dihydro-1H-isoquinoline-2-carboxylic acid benzyl ester]
7.08	COc1ccc(OCC(=O)O)c(C2c3ccccc3CCN2C(=O)OCc2ccccc2)c1 (racemic) [Example 24, (±)-1-(2-Carboxymethoxy-5-methoxy-phenyl)-3,4-dihydro-1H-isoquinoline-2-carboxylic acid benzyl ester]
6.71	O=C(O)COc1c(F)cc(F)cc1C1c2ccccc2CCN1C(=O)OCc1ccccc1 (racemic) [Example 33, (±)-1-(2-Carboxymethoxy-3,5-difluoro-phenyl)-3,4-dihydro-1H-isoquinoline-2-carboxylic acid benzyl ester]
8.14	O=C(O)COc1ccc(F)cc1C1c2cccc(F)c2CCN1C(=O)OCc1ccccc1 (racemic) [Example 34, (±)-1-(2-Carboxymethoxy-5-fluoro-phenyl)-5-fluoro-3,4-dihydro-1H-isoquinoline-2-carboxylic acid benzyl ester]
7.71	COc1cccc2c1CCN(C(=O)OCc1ccccc1)C2c1cc(F)ccc1OCC(=O)O (racemic) [Example 35, (±)-1-(2-Carboxymethoxy-5-fluoro-phenyl)-5-methoxy-3,4-dihydro-1H-isoquinoline-2-carboxylic acid benzyl ester]
7.24	COc1cc2c(cc1OC)C(c1cc(F)ccc1OCC(=O)O)N(C(=O)OCc1ccccc1)CC2 (racemic) [Example 36, (±)-1-(2-Carboxymethoxy-5-fluoro-phenyl)-6,7-dimethoxy-3,4-dihydro-1H-isoquinoline-2-carboxylic acid benzyl ester]
7.70	COc1ccc2c(c1)C(c1cc(F)ccc1OCC(=O)O)N(C(=O)OCc1ccccc1)CC2 (racemic) [Example 37, (±)-1-(2-Carboxymethoxy-5-fluoro-phenyl)-7-methoxy-3,4-dihydro-1H-isoquinoline-2-carboxylic acid benzyl ester]
